Assay results: patent US10426850B2, “Collagen mimetic peptides for targeting collagen strands for in vitro and in vivo imaging and therapeutic use” (The Johns Hopkins University, priority 2011, dated 2019)

Target: T1, thermally-denatured collagen (gelatin) films (Rattus norvegicus, UniProt P02454+P02466)
T1 construct: To make gelatin films, the same collagen solution was denatured at 70° C. for 15 minutes; purchased BD Science; host or cells: rat tail
Test: Photo-triggered CMP binding assay on gelatin films
Procedure: Collagen/gelatin binding assays. Collagen solution (200 μL, 3.71 mg/mL, type I rat tail, BD Science) in 0.02 N acetic acid was added to each well of a 96-well black/clear-bottom plate (Costar) and air-dried. To make gelatin films, the same collagen solution was denatured at 70° C. for 15 minutes before applying to the well. The dried films were neutralized and washed with 1×PBS buffer (pH 7.4) and deionized water. PBS solution of carboxyfluorescein-labeled caged CMP (40 μL, 50 μM, unless indicated otherwise) pre-equilibrated at 4° C. was added onto each reconstituted collagen or gelatin film and exposed to 365 nm UV light (10 mW/cm^2, from mercury arc lamp) for 11 minutes on ice. Wells for the UV-negative control groups were covered with aluminum foil to block UV exposure. After incubation at 4° C. for over 3 hours (unless indicated otherwise), the unbound materials were removed by rinsing with PBS buffer and deionized water. The films were allowed to dry in dark, after which the fluorescence (ex: 489 nm, em: 533 nm) was measured with a SpectraMax Gemini XPS microplate reader (Molecular Devices). Each binding experiment was done in triplicate.

T1 sequence (P02454 152-1207 limits assumed): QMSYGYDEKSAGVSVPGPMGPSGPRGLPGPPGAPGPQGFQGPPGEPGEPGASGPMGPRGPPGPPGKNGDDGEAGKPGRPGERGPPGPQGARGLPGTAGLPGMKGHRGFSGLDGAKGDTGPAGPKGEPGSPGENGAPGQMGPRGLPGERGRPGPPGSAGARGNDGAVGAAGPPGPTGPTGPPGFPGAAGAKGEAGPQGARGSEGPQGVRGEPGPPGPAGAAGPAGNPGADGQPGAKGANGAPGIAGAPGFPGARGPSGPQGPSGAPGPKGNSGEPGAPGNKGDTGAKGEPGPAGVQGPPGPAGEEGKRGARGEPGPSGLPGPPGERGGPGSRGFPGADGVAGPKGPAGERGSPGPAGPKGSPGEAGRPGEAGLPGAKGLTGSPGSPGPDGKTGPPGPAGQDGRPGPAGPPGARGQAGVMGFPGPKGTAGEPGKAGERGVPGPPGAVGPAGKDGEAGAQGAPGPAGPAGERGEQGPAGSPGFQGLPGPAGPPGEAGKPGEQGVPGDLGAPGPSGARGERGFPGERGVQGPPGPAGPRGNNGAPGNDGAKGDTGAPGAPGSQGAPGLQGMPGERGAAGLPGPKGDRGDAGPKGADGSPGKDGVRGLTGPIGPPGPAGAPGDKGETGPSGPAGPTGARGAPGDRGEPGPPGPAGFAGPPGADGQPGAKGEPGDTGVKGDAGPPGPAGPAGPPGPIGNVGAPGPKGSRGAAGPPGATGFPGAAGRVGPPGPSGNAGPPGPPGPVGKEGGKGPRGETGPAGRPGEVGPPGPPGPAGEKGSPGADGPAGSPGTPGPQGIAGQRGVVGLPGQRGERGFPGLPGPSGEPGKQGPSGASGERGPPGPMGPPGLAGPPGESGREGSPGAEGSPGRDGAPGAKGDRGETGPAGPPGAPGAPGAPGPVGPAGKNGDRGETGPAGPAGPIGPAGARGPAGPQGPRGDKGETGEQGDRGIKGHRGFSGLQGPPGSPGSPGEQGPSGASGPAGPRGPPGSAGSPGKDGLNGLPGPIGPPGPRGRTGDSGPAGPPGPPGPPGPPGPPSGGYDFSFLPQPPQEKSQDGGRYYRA
T1 sequence (P02466 86-1125 limits assumed): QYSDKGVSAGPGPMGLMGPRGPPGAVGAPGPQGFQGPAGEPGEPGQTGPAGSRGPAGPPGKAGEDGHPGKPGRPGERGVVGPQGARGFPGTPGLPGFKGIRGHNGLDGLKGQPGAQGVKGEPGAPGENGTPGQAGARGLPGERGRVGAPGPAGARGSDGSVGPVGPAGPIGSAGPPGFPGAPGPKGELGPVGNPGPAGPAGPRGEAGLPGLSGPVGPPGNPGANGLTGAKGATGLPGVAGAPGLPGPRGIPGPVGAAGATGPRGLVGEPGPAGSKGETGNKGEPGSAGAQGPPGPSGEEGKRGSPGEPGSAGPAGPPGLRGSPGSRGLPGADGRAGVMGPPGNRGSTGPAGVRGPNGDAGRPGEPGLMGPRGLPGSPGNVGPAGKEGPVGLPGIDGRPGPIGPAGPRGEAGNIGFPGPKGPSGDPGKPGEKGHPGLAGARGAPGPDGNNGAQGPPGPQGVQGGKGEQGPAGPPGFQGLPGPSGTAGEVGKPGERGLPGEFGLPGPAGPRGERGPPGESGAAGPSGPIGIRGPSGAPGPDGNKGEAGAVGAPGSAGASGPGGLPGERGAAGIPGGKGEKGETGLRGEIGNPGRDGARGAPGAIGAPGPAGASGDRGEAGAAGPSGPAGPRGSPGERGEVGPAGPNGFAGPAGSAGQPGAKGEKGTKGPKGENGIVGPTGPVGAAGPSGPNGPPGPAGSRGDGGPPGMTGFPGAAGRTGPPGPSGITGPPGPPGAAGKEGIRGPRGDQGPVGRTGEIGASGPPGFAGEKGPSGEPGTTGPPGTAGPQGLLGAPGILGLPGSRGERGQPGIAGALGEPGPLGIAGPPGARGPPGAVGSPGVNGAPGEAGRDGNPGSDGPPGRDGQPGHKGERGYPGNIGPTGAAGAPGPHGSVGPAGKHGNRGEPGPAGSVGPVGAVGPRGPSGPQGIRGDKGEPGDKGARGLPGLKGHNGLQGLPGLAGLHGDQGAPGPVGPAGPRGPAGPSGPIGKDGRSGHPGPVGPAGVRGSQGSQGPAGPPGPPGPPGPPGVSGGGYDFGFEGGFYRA

CF-GGG-(GPO)4^NBGPO(GPO)4 [CF^NB(GPO)9]
binding (fluorescence intensity of film) (caged, UV−): negligible
level of binding on gelatin relative to collagen (photo-activated (UV+)): an order of magnitude higher
